In patent publication US10717711B2, “Amino quinazolines as kinase inhibitors” (GlaxoSmithKline Intellectual Property Development Limited, priority 2011, dated 2020):
“And” between values parts separate entries of the source, which are not always exact repeats. Equal values may be shown once.

molecular target: T1, RIPK2 (full length FLAG His tagged RIPK2; RIP2 kinase) (Homo sapiens, UniProt O43353); assay: Fluorescent polarization based binding assay at the ATP binding pocket of RIPK2; conditions: competition with fluorescently labeled ATP competitive ligand (5 nM); mean of a minimum of 2 experiments; approximate values; read-out: mean pIC50 (RIP2 kinase inhibition) (converted)
T1 construct: Full length FLAG His tagged RIPK2 was purified from a Baculovirus expression system; FLAG (N); 6His (N); made in house; host or cells: Spodoptera frugiperda (Sf9) insect cells, baculovirus
From the text: A fluorescent polarization based binding assay was developed to quantitate interaction of novel test compounds at the ATP binding pocket of RIPK2, by competition with a fluorescently labeled ATP competitive ligand. Full length FLAG His tagged RIPK2 was purified from a Baculovirus expression system and was used at a final assay concentration of twice the KDapparent. A fluorescent labeled ligand (5-({[2-({[3-({4-[(5-hydroxy-2-methylphenyl)amino]-2-pyrimidinyl}amino)phenyl]carbonyl}amino)ethyl] amino}carbonyl)-2-(6-hydroxy-3-oxo-3H-xanthen-9-yl)benzoic acid, prepared as described in WO2011/120025) was used at a final assay concentration of 5 nM. Both the enzyme and ligand were prepared in solutions in 50 mM HEPES pH7.5, 150 mM NaCl, 10 mM MgCl2, 1 mM DTT, and 1 mM CHAPS. Test compounds were prepared in 100% DMSO and 100 nL was dispensed to individual wells of a multiwell plate. Next, 5 ul RIPK2 was added to the test compounds at twice the final assay concentration, and incubated at rt for 10 min. Following the incubation, 5 ul of the fluorescent labeled ligand solution, was added to each reaction, at twice the final assay concentration, and incubated at rt for at least 10 min. Finally, samples were read on an instrument capable of measuring fluorescent polarization. Test compound inhibition was expressed as percent (%) inhibition of internal assay controls.
For concentration/dose response experiments, normalized data were fit and pIC50S determined using conventional techniques. The pIC50S are averaged to determine a mean value, for a minimum of 2 experiments.
Full-length human RIPK2 (receptor-interacting serine-threonine kinase 2) cDNA was purchased from Invitrogen (Carlsbad, Calif., USA, Clone ID:IOH6368, RIPK2-pENTR 221). Gateway® LR cloning was used to site-specifically recombine RIPK2 downstream to an N-terminal FLAG-6His contained within the destination vector pDEST8-FLAG-His6 according to the protocol described by Invitrogen. Transfection into Spodoptera frugiperda (Sf9) insect cells was performed using Cellfectin® (Invitrogen), according to the manufacturer's protocol.
Sf9 cells were grown in Excell 420 (SAFC Biosciences, Lenexa, Kans., US; Andover, Hampshire UK) growth media at 27° C., 80 rpm in shake flask until of a sufficient volume to inoculate a bioreactor. […] The insect cells were infected with Baculovirus at a multiplicity of infection (MOI) of 12.7. The cultivation was continued for a 43 hour expression phase. The infected cells were removed from the growth media by centrifugation at 2500 g using a Viafuge (Carr) continuous centrifuge at a flow rate of 80 litres/hour. The cell pellet was immediately frozen and subsequently supplied for purification.
Purification Procedure I: 9.83×10^10 Insect cells were re-suspended in 1.4 L lysis buffer (50 mM Tris (pH 8.0), 150 mM NaCl, 0.5 mM NaF, 0.1% Triton X-100, 1 mL/litre Protease Inhibitor Cocktail Set III (available from EMD Group; CalBiochem/Merck Biosciences, Gibbstown, N.J., US; Damstadt, Germany) and processed by dounce homogenization on ice. The suspension was then clarified by centrifugation at 47,900 g for 2 h, at 4° C. The lysate was decanted from the insoluble pellet and loaded at a linear flow rate of 16 cm/h onto a 55 mL FLAG-M2 affinity column (2.6×10.4 cm) that had been pre-equilibrated with 10 column volumes buffer A (50 mM Tris (pH 8.0), 150 mM NaCl, 0.5 mM NaF, 1 mL/litre Protease Inhibitor Cocktail Set III). […]

T1 sequence (O43353 whole entry): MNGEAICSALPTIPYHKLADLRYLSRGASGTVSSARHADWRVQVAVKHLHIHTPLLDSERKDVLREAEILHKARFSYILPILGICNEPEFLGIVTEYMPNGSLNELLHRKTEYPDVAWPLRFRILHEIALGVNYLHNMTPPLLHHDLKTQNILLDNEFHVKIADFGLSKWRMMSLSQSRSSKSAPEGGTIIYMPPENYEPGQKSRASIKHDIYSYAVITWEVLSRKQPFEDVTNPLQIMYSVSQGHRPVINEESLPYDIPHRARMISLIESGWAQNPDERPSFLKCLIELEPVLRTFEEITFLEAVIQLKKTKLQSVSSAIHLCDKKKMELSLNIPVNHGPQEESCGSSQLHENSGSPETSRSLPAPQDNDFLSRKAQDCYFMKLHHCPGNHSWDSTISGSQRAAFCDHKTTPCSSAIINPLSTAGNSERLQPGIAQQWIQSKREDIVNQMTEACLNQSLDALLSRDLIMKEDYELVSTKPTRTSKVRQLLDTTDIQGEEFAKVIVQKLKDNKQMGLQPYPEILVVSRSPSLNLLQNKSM

Row | IC50 | Compound
1 | ~31.6 nM and 1 to 100 nM | CC(C)(C)S(=O)(=O)c1ccc2ncnc(Nc3ccc4scnc4c3)c2c1 [Example 4, N-1,3-benzothiazol-5-yl-6-[(1,1-dimethylethyl)sulfonyl]-4-quinazolinamine]
2 | 1 to 100 nM | CC(C)S(=O)(=O)c1ccc2ncnc(Nc3ccc4scnc4c3)c2c1 [Example 6, N-1,3-benzothiazol-5-yl-6-[(1-methylethyl)sulfonyl]-4-quinazolinamine]
3 | ~3.16 nM and 1 to 100 nM | COc1cc2ncnc(Nc3ccc4scnc4c3)c2cc1S(=O)(=O)C(C)(C)C [Example 16, N-(6-(tert-butylsulfonyl)-7-methoxyquinazolin-4-yl)benzo[d]thiazol-5-amine]
4 | 1 to 100 nM | CC(C)(C)S(=O)(=O)c1cc2c(Nc3ccc4scnc4c3)ncnc2cc1OCCO [Example 21, 2-((4-(benzo[d]thiazol-5-ylamino)-6-(tert-butylsulfonyl)quinazolin-7-yl)oxy)ethanol]
5 | 1 to 100 nM | CC(C)(C)S(=O)(=O)c1cc2c(Nc3ccc4scnc4c3)ncnc2cc1OCC(F)(F)F [Example 23, N-(6-(tert-butylsulfonyl)-7-(2,2,2-trifluoroethoxy)quinazolin-4-yl)benzo[d]thiazol-5-amine]
